A solubility (mole fraction) (in 2-butanone, 278.15 K) of 0.00549, a solubility (mole fraction) (in 2-butanone, 283.15 K) of 0.00628 and a solubility (mole fraction) (in 2-butanone, 288.15 K) of 0.00726 were found for `C=CC(=O)N1CCC[C@@H](n2nc(-c3ccc(Oc4ccccc4)cc3)c3c(N)ncnc32)C1` in this work. It also gave a solubility (mole fraction) (in 2-butanone, 293.15 K) of 0.00855, a solubility (mole fraction) (in 2-butanone, 298.15 K) of 0.00988 and a solubility (mole fraction) (in 2-butanone, 303.15 K) of 0.0114. For the same molecule, the solubility (mole fraction) (in 2-butanone, 308.15 K) was 0.0132, the solubility (mole fraction) (in 2-butanone, 313.15 K) was 0.0155 and the solubility (mole fraction) (in 2-butanone, 318.15 K) was 0.0181. It also gave a solubility (mole fraction) (in 2-butanone, 323.15 K) of 0.0211, a solubility (mole fraction) (in MTBE, 278.15 K) of 0.000225 and a solubility (mole fraction) (in MTBE, 283.15 K) of 0.000244. It also gave a solubility (mole fraction) (in MTBE, 288.15 K) of 0.000277, a solubility (mole fraction) (in MTBE, 293.15 K) of 0.000305 and a solubility (mole fraction) (in MTBE, 298.15 K) of 0.000331. For the same molecule, the solubility (mole fraction) (in MTBE, 303.15 K) was 0.00037, the solubility (mole fraction) (in MTBE, 308.15 K) was 0.000404 and the solubility (mole fraction) (in MTBE, 313.15 K) was 0.000454. For the same molecule, the solubility (mole fraction) (in MTBE, 318.15 K) was 0.000497, the solubility (mole fraction) (in MTBE, 323.15 K) was 0.00056 and the solubility (mole fraction) (in acetone, 278.15 K) was 0.00362. It also gave a solubility (mole fraction) (in acetone, 283.15 K) of 0.00417, a solubility (mole fraction) (in acetone, 288.15 K) of 0.00487 and a solubility (mole fraction) (in acetone, 293.15 K) of 0.00573. The solubility (mole fraction) (in acetone, 298.15 K) was 0.00673, the solubility (mole fraction) (in acetone, 303.15 K) was 0.00794 and the solubility (mole fraction) (in acetone, 308.15 K) was 0.00921. For the same molecule, the solubility (mole fraction) (in acetone, 313.15 K) was 0.0108, the solubility (mole fraction) (in acetone, 318.15 K) was 0.0125 and the solubility (mole fraction) (in acetone, 323.15 K) was 0.0144. It also gave a solubility (mole fraction) (in acetonitrile, 278.15 K) of 0.000672, a solubility (mole fraction) (in acetonitrile, 283.15 K) of 0.000819 and a solubility (mole fraction) (in acetonitrile, 288.15 K) of 0.000962. It also gave a solubility (mole fraction) (in acetonitrile, 293.15 K) of 0.00122, a solubility (mole fraction) (in acetonitrile, 298.15 K) of 0.00143 and a solubility (mole fraction) (in acetonitrile, 303.15 K) of 0.00174. The solubility (mole fraction) (in acetonitrile, 308.15 K) was 0.0021, the solubility (mole fraction) (in acetonitrile, 313.15 K) was 0.00256 and the solubility (mole fraction) (in acetonitrile, 318.15 K) was 0.00314. The solubility (mole fraction) (in acetonitrile, 323.15 K) was 0.00367, the solubility (mole fraction) (in ethyl acetate, 278.15 K) was 0.00312 and the solubility (mole fraction) (in ethyl acetate, 283.15 K) was 0.00357. It also gave a solubility (mole fraction) (in ethyl acetate, 288.15 K) of 0.00403, a solubility (mole fraction) (in ethyl acetate, 293.15 K) of 0.00475 and a solubility (mole fraction) (in ethyl acetate, 298.15 K) of 0.00548. It also gave a solubility (mole fraction) (in ethyl acetate, 303.15 K) of 0.00618, a solubility (mole fraction) (in ethyl acetate, 308.15 K) of 0.00722 and a solubility (mole fraction) (in ethyl acetate, 313.15 K) of 0.0083. For the same molecule, the solubility (mole fraction) (in ethyl acetate, 318.15 K) was 0.00952, the solubility (mole fraction) (in ethyl acetate, 323.15 K) was 0.0107 and the solubility (mole fraction) (in isopropanol, 278.15 K) was 0.000409. For the same molecule, the solubility (mole fraction) (in isopropanol, 283.15 K) was 0.000547, the solubility (mole fraction) (in isopropanol, 288.15 K) was 0.000734 and the solubility (mole fraction) (in isopropanol, 293.15 K) was 0.000947. It also gave a solubility (mole fraction) (in isopropanol, 298.15 K) of 0.00123, a solubility (mole fraction) (in isopropanol, 303.15 K) of 0.00165 and a solubility (mole fraction) (in isopropanol, 308.15 K) of 0.00217. The solubility (mole fraction) (in isopropanol, 313.15 K) was 0.00278, the solubility (mole fraction) (in isopropanol, 318.15 K) was 0.00363 and the solubility (mole fraction) (in isopropanol, 323.15 K) was 0.00455. For the same molecule, the solubility (mole fraction) (in n-butanol, 278.15 K) was 0.00127, the solubility (mole fraction) (in n-butanol, 283.15 K) was 0.00163 and the solubility (mole fraction) (in n-butanol, 288.15 K) was 0.00206. It also gave a solubility (mole fraction) (in n-butanol, 293.15 K) of 0.00261, a solubility (mole fraction) (in n-butanol, 298.15 K) of 0.00331 and a solubility (mole fraction) (in n-butanol, 303.15 K) of 0.00423. It also gave a solubility (mole fraction) (in n-butanol, 308.15 K) of 0.0054, a solubility (mole fraction) (in n-butanol, 313.15 K) of 0.00694 and a solubility (mole fraction) (in n-butanol, 318.15 K) of 0.00894. It also gave a solubility (mole fraction) (in n-butanol, 323.15 K) of 0.0115.

From BigSolDB 2.1
